The values below come from ChEMBL document CHEMBL5038631, “2-(2-Hydroxyethyl)piperazine derivatives as potent human carbonic anhydrase inhibitors: Synthesis, enzyme inhibition, computational studies and antiglaucoma activity” (Eur J Med Chem, 2022).

One may read the Ki as a dissociation constant, usually derived from enzyme kinetics or from competition with a known ligand. Low readings indicate tighter binding, high ones weaker binding.

Structures are written as SMILES.

The test concerns the target Carbonic anhydrase 9 (Homo sapiens, UniProt Q16790). Description: Inhibition of human CA9 incubated for 15 mins prior to testing by phenol red dye based stopped flow CO2 hydration assay.
`NS(=O)(=O)c1ccc(C(=O)N2CCNC(CCO)C2)cc1` (racemic) showed an inhibition constant Ki of 34.4 nM.
Take `NS(=O)(=O)c1ccc(C(=O)N2CCN(Cc3ccccc3)C[C@H]2CCO)cc1`: the affinity, expressed as Ki, was 35.2 nM.
As for `CN1CCN(C(=O)c2ccc(S(N)(=O)=O)cc2)[C@H](CCO)C1`, the figure is 24.9 nM; as for `NS(=O)(=O)c1ccc(C(=O)N2CCN(Cc3ccccc3)C[C@@H]2CCO)cc1`, 14.7 nM.
As for `CN1CCN(C(=O)c2ccc(S(N)(=O)=O)cc2)[C@@H](CCO)C1`, the figure is 31.2 nM.
As for `NS(=O)(=O)c1ccc(C(=O)N2CCNC[C@@H]2CCO)cc1`, the figure is 51.9 nM; as for `NS(=O)(=O)c1ccc(C(=O)N2CCN[C@H](CCO)C2)cc1`, 53.3 nM; as for `NS(=O)(=O)c1ccc(C(=O)N2CCN(Cc3ccccc3)C(CCO)C2)cc1` (racemic), 28.8 nM.
`CN1CCN(C(=O)c2ccc(S(N)(=O)=O)cc2)C[C@H]1CCO` displayed a Ki of 6.8 nM.
The figure for `NS(=O)(=O)c1ccc(C(=O)N2CCNC[C@H]2CCO)cc1` is 60.5 nM; for `NS(=O)(=O)c1ccc(C(=O)N2CCN(Cc3ccccc3)[C@H](CCO)C2)cc1` it is 59.9 nM; for `CN1CCN(C(=O)c2ccc(S(N)(=O)=O)cc2)CC1CCO` (racemic) it is 6.8 nM.
